Measurements taken from patent US4261989A, “Geldanamycin derivatives and antitumor drug” (Kaken Chemical Co. Ltd., priority 1979, dated 1981).
Like-named read-outs stand apart in the source and are kept apart here.

Assays:
cancer cell W-2K-11 = experiment: Growth inhibition of cancer cell W-2K-11 (percent inhibition of cell multiplication, Table 2); type: cell-based, mouse; conditions: Mus musculus; for inhibition at 10 µg/mL: concentration 10 μg/ml; for inhibition at 10 µg/mL / inhibition at 1 µg/mL: read-out: Percent inhibition (%)
Method: Cancer cell W-2K-11 was obtained by transforming fibroblast C3H-2K clone derived from kidney of mouse by cancerogenic virus. The cancer cell W-2K-11 was cultured by the following method.
(1) Preparation of culture medium
9.4 Gram of Eagle's MEM culture media (manufactured by Nissui Seiyaku K. K.) was dissolved in 900 ml. of distilled water and the solution was sterilized under high pressure at 120° C. for 15 minutes and cooled. 100 Ml. of calf serum and 3-5 ml. of 10% aqueous solution of sodium bicarbonate were added to the solution to adjust pH to 7.1-7.2. 10 Ml. of an aqueous solution of L-glutamine (2.92 g./100 ml.) filtered by a millipore filter was added just before the use of the solution as culture medium.
(2) Preparation of transplanted cell solution
The cancer cell W-2K-11 stored in a freezer at -80° C. was melted at room temperature and treated by a centrifugal separator at 670 g. for 5 minutes. The precipitated cell was dispersed in 50 ml. of the culture medium (1). The suspension was charged into Roux flask and cultured at 37° C. The multiplication of the cells was initiated and accomplished after 3 to 4 days. The cultured mixture was decanted and 10 ml. of 0.2% trypsin solution was added and the mixture was kept at room temperature for 2 to 3 minutes and the trypsin mixture was decanted and then, 50 ml. of the culture medium (1) was added to prepare a suspension of cells.
(3) Incubation of cells and addition of sample
1.8 Ml. of the suspension of cells (2) was charged into each Petri dish and incubated in a carbon dioxide gas incubator (5% of CO2; 95% of air) at 37° C. Twenty four hours after the initiation of the incubation, 0.2 ml. of each ethanol solution of each sample was added, and the incubation was continued. Forty eight hours after the addition of the sample, numbers of survival cells were counted under a microscopic observation and each percent inhibition of cell multiplication was calculated. [formula]

[1] = Acute toxicity, LD50 to mouse by intraperitoneal injection (Table 3); conditions: in vivo, ip
Method: LD50 of each sample to mouse was measured by intraperitoneal injection of each sample.

[2] = 48 hours after addition of sample, W-2K-11 cells
[3] = concentration 1 μg/ml, 48 hours after addition of sample, W-2K-11 cells

| SMILES | inhibition at 10 µg/mL (cancer cell W-2K-11; [2]) [%] | LD50 [1] [mg/kg] | inhibition at 1 µg/mL (cancer cell W-2K-11; [3]) [%] | other results |
| --- | --- | --- | --- | --- |
| COC1=C2CC(C)CC(OC)C(O)C(C)C=C(C)C(OC(N)=O)C(OC)C=CC=C(C)C(=O)N(C)C(=CC1=O)C2=O (stereo not drawn) [Example 41, 21-N-methyl-Geldanamycin] | 82 | 120 | – | – |
| COC1=C2CC(C)CC(OC)C(O)C(C)C3OC3(C)C(OC(N)=O)C(OC)C=CC=C(C)C(=O)NC(=CC1=O)C2=O (stereo not drawn) [Example 45, 8,9-epoxy-Geldanamycin] | 100 | 240 | 95 | – |
| COC1=C2C[C@@H](C)C[C@H](OC)[C@H](O)[C@@H](C)/C=C(\C)[C@H](OC(N)=O)[C@@H](OC)/C=C\C=C(/C)C(=O)NC(=CC1=O)C2=O [Geldanamycin] | – | 15 | – | inhibition at 1.2 µg/mL (cancer cell W-2K-11; concentration 1.2 μg/ml, 48 hours after addition of sample, W-2K-11 cells): 61% |
| COCCNC1=C2CC(C)CC(OC)C(O)C(C)C=C(C)C(OC(N)=O)C(OC)C=CC=C(C)C(=O)NC(=CC1=O)C2=O (stereo not drawn) [Example 33] | – | – | – | inhibition at 0.5 µg/mL (cancer cell W-2K-11; concentration 0.5 μg/ml, 48 hours after addition of sample, W-2K-11 cells): 95% |
| COC1=C2CC(C)CC(OC)C(O)C(C)C=C(C)C(OC(N)=O)C(OC)C=CC=C(C)C(=O)NC(=C(N(C)C)C1=O)C2=O (stereo not drawn) [Example 36, 19-dimethylamino-Geldanamycin] | 84 | > 240 | 70 | – |
| COC1/C=C\C=C(/C)C(=O)NC2=CC(=O)C(NC3CCCCC3)=C(CC(C)CC(OC)C(O)C(C)/C=C(\C)C1OC(N)=O)C2=O (stereo not drawn) [Example 15] | – | – | 98 | – |
| COC1/C=C\C=C(/C)C(=O)NC2=CC(=O)C(NCCCl)=C(CC(C)CC(OC)C(O)C(C)/C=C(\C)C1OC(N)=O)C2=O (stereo not drawn) [Example 20] | – | – | – | inhibition at 1 µg/mL (cancer cell W-2K-11; 48 h): 98% |
| CCNC1=C2CC(C)CC(OC)C(O)C(C)/C=C(\C)C(OC(N)=O)C(OC)/C=C\C=C(/C)C(=O)NC(=CC1=O)C2=O (stereo not drawn) [Example 3] | – | 120 | 90 | – |
